Data reported in patent publication US20220144838A1, “Compounds as Inhibitors of Macrophage Migration Inhibitory Factor” (NANJING IMMUNOPHAGE BIOTECH CO., LTD., priority 2019, published 2022).

The compounds below were run against T1, MIF (Homo sapiens, UniProt P14174) (assay: MIF tautomerase assay using pHPP as substrate). Conditions: FIGS. 1-5; mean of multiple test results; read-out: pIC50 MIF tautomerase activity (converted).
T1 sequence (P14174 2-115 limits assumed): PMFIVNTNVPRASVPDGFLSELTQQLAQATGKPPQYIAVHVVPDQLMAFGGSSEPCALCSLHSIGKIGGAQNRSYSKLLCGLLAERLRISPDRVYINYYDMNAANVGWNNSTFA
Assay type: biochemical
In short: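 Mean pIC50 derived from initial rates (absorbance progress-curve slopes) of MIF-catalyzed ketonic-to-enolic pHPP conversion, read as enol–borate complex. Reactions contained 1.5 mM substrate and 3 nM enzyme (final), 200 mM boric acid stock buffer, BSA and CHAPS, pH 6.0.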

Row | IC50 [nM] | Compound
1 | ≤ 100 | O=C(Cn1cnc2c(-n3ncc4ccccc43)nc(N3CCN(c4ccc(O)cc4)CC3)nc21)NS(=O)(=O)C1CC1 [Example 55, N-(cyclopropylsulfonyl)-2-(2-(4-(4-hydroxyphenyl)piperazin-1-yl)-6-(1H-indazol-1-yl)-9H-purin-9-yl)acetamide]

Same assay, conditions: inhibition of the MIF enzyme in vitro; mean of multiple test results; read-out: Tautomerase Inhibition pIC50 (converted)

Row | Compound | IC50 [nM]
2 | Cc1cncc(-n2cnc3c(C)nc(N4CCN(c5ccc(O)cc5)CC4)nc32)c1 [Example 38, 4-(4-(6-methyl-9-(5-methylpyridin-3-yl)-9H-purin-2-yl)piperazin-1-yl)phenol] | 1000 to 9770
3 | N#Cc1ccc(-n2cnc3c(N)nc(N4CCN(c5ccc(O)cc5)CC4)nc32)cc1 [Example 74, 4-(6-amino-2-(4-(4-hydroxyphenyl)piperazin-1-yl)-9H-purin-9-yl)benzonitrile] | 100 to 977
4 | Oc1ccc(N2CCN(c3cc(-n4ncc5ccccc54)n4ncc(Br)c4n3)CC2)cc1 [Example 13, 4-(4-(3-bromo-7-(1H-indazol-1-yl)pyrazolo[1,5-a]pyrimidin-5-yl)piperazin-1-yl)phenol] | > 10000
5 | O=C(O)CNC(=O)Cn1cnc2c(-n3ncc4ccccc43)nc(N3CCN(c4ccc(O)cc4)CC3)nc21 [Example 132, 2-(2-(2-(4-(4-hydroxyphenyl)piperazin-1-yl)-6-(1H-indazol-1-yl)-9H-purin-9-yl)acetamido)acetic acid] | 10 to 97.7
6 | OCC(CO)n1cnc2c(N3CCc4ccccc43)nc(N3CCN(c4ccc(O)cc4)CC3)nc21 [Example 133, 2-(2-(4-(4-hydroxyphenyl)piperazin-1-yl)-6-(indolin-1-yl)-9H-purin-9-yl)propane-1,3-diol] | 100 to 977
7 | O=C(O)Cn1cnc2c(-n3ncc4ccccc43)nc(N3CCN(c4ccc(O)cc4)CC3)nc21 [Example 45, 2-(2-(4-(4-hydroxyphenyl)piperazin-1-yl)-6-(1H-indazol-1-yl)-9H-purin-9-yl)acetic acid] | 10 to 97.7
8 | O=C(O)Cn1cnc2c(-n3ncc4c(O)cccc43)nc(N3CCN(c4ccc(O)cc4)CC3)nc21 [Example 108, 2-(6-(4-hydroxy-1H-indazol-1-yl)-2-(4-(4-hydroxyphenyl)piperazin-1-yl)-9H-purin-9-yl)acetic acid] | 10 to 97.7
9 | COc1ccc(-n2cnc3c(N)nc(N4CCN(c5ccc(O)cc5)CC4)nc32)cn1 [Example 85, 4-(4-(6-amino-9-(6-methoxypyridin-3-yl)-9H-purin-2-yl)piperazin-1-yl)phenol] | 100 to 977
10 | O=C(O)Cn1cnc2c(N3Cc4ccccc4C3)nc(N3CCN(c4ccc(O)cc4)CC3)nc21 [Example 26, 2-(2-(4-(4-hydroxyphenyl)piperazin-1-yl)-6-(isoindolin-2-yl)-9H-purin-9-yl)acetic acid] | 100 to 977
11 | O=C(Cn1cnc2c(-n3ncc4ccccc43)nc(N3CCN(c4ccc(O)cc4)CC3)nc21)NS(=O)(=O)C1CC1 [Example 55, N-(cyclopropylsulfonyl)-2-(2-(4-(4-hydroxyphenyl)piperazin-1-yl)-6-(1H-indazol-1-yl)-9H-purin-9-yl)acetamide] | 10 to 97.7
12 | CCOc1ncccc1-n1cnc2c(N)nc(N3CCN(c4ccc(O)cc4)CC3)nc21 [Example 83, 4-(4-(6-amino-9-(2-ethoxypyridin-3-yl)-9H-purin-2-yl)piperazin-1-yl)phenol] | 1000 to 9770
13 | N#Cc1ccc2c(cnn2-c2nc(N3CCN(c4ccc(O)cc4)CC3)nc3c2ncn3CC(=O)O)c1 [Example 52, 2-(6-(5-cyano-1H-indazol-1-yl)-2-(4-(4-hydroxyphenyl)piperazin-1-yl)-9H-purin-9-yl)acetic acid] | 10 to 97.7
14 | COc1ccc2cnn(-c3nc(N4CCN(c5ccc(O)cc5)CC4)nc4c3ncn4CC(=O)O)c2c1 [Example 50, 2-(2-(4-(4-hydroxyphenyl)piperazin-1-yl)-6-(6-methoxy-1H-indazol-1-yl)-9H-purin-9-yl)acetic acid] | 1000 to 9770
15 | OCCCNc1nc(N2CCN(c3ccc(O)cc3)CC2)nc2c1ncn2-c1cccnc1 [Example 113, 4-(4-(6-((3-hydroxypropyl)amino)-9-(pyridin-3-yl)-9H-purin-2-yl)piperazin-1-yl)phenol] | 100 to 977
16 | Cc1cc(C#N)ccc1-n1cnc2c(N)nc(N3CCN(c4ccc(O)cc4)CC3)nc21 [Example 70, 4-(6-amino-2-(4-(4-hydroxyphenyl)piperazin-1-yl)-9H-purin-9-yl)-3-methylbenzonitrile] | > 10000
17 | O=C(O)Cn1cnc2c(-n3ncc4ccccc43)nc(N3CCN(c4ccc(O)cn4)CC3)nc21 [Example 21, 2-(2-(4-(5-hydroxypyridin-2-yl)piperazin-1-yl)-6-(1H-indazol-1-yl)-9H-purin-9-yl)acetic acid] | 10 to 97.7
18 | Cc1nc(N2CCN(c3ccc(O)cc3)CC2)nc2c1ncn2-c1cccnc1O [Example 60, 3-(2-(4-(4-hydroxyphenyl)piperazin-1-yl)-6-methyl-9H-purin-9-yl)pyridin-2-ol] | 100 to 977
19 | O=C(O)Cn1cnc2c(-n3ncc4c(CO)cccc43)nc(N3CCN(c4ccc(O)cc4)CC3)nc21 [Example 16, 2-(6-(4-(hydroxymethyl)-1H-indazol-1-yl)-2-(4-(4-hydroxyphenyl)piperazin-1-yl)-9H-purin-9-yl)acetic acid] | 10 to 97.7
20 | O=C(O)Cn1cnc2c(N3CCc4ccccc43)nc(N3CCN(c4ccc(O)cc4)CC3)nc21 [Example 31, 2-(2-(4-(4-hydroxyphenyl)piperazin-1-yl)-6-(indolin-1-yl)-9H-purin-9-yl)acetic acid] | 100 to 977
21 | Nc1nc(N2CCN(c3ccc(O)cc3)CC2)nc2c1ncn2-c1ccc(C(=O)O)cc1 [Example 102, 4-(6-amino-2-(4-(4-hydroxyphenyl)piperazin-1-yl) 9H-purin-9-yl)benzoic acid] | 1000 to 9770
22 | CS(=O)(=O)NC(=O)Cn1cnc2c(-n3ncc4ccccc43)nc(N3CCN(c4ccc(O)cc4)CC3)nc21 [Example 57, 2-(2-(4-(4-hydroxyphenyl)piperazin-1-yl)-6-(1H-indazol-1-yl)-9H-purin-9-yl)-N-(methylsulfonyl)acetamide] | 10 to 97.7
23 | CCC(CO)Nc1nc(N2CCN(c3ccc(O)cc3)CC2)nc2c1ncn2-c1cccnc1 (centres unmarked) [Example 114] | 100 to 977
24 | O=C(O)Cn1cnc2c(-n3nc(CO)c4ccccc43)nc(N3CCN(c4ccc(O)cc4)CC3)nc21 [Example 11, 2-(6-(3-(hydroxymethyl)-1H-indazol-1-yl)-2-(4-(4-hydroxyphenyl)piperazin-1-yl)-9H-purin-9-yl)acetic acid] | 10 to 97.7

Next, values leading:

Row | IC50 [nM] | Compound
25 | > 10000 | Nc1nc(N2CC(O)(c3nccs3)C2)nc2c1ncn2-c1ccncc1 [Example 201, 1-(6-amino-9-(pyridin-4-yl)-9H-purin-2-yl)-3-(thiazol-2-yl)azetidin-3-ol]
26 | > 10000 | Nc1nc(N2CCN(c3ccc(O)cc3)CC2)nc2c1ncn2C1CCCC(C(=O)O)C1 (mixture of isomers) [Example 189, 3-(6-amino-2-(4-(4-hydroxyphenyl)piperazin-1-yl)-9H-purin-9-yl)cyclohexane-1-carboxylic acid]
27 | 10 to 97.7 | O=C(O)CCCCn1cnc2c(-n3ncc4ccccc43)nc(N3CCN(c4ccc(O)cc4)CC3)nc21 [Example 150, 5-(2-(4-(4-hydroxyphenyl)piperazin-1-yl)-6-(1H-indazol-1-yl)-9H-purin-9-yl)pentanoic acid]
28 | 10 to 97.7 | CCC(CO)N(C)c1nc(N2CCN(c3ccc(O)cc3)CC2)nc2c1ncn2-c1cccnc1 (centres unmarked) [Example 169, 4-(4-(6-((1-hydroxybutan-2-yl)(methyl)amino)-9-(pyridin-3-yl)-9H-purin-2-yl)piperazin-1-yl)phenol]
29 | 10 to 97.7 | Nc1nc(N2CCC(O)(c3ccc(O)cc3)CC2)nc2c1ncn2-c1ccncc1 [Example 155, 1-(6-amino-9-(pyridin-4-yl)-9H-purin-2-yl)-4-(4-hydroxyphenyl)piperidin-4-ol]
30 | 10 to 97.7 | O=C(O)CCN(CCO)c1nc(N2CCN(c3ccc(O)cc3)CC2)nc2c1ncn2-c1ccncc1 [Example 168, 3-((2-hydroxyethyl)(2-(4-(4-hydroxyphenyl)piperazin-1-yl)-9-(pyridin-4-yl)-9H-purin-6-yl)amino)propanoic acid]
31 | > 10000 | Nc1nc(N2CCN(c3ccc(CO)cc3)CC2)nc2c1ncn2-c1ccncc1 [Example 192, (4-(4-(6-amino-9-(pyridin-4-yl)-9H-purin-2-yl)piperazin-1-yl)phenyl)methanol]
32 | 100 to 977 | CC1CN(c2nc(N)c3ncn(-c4ccncc4)c3n2)CCN1c1ccc(O)cc1 (centres unmarked) [Example 186, 4-(4-(6-amino-9-(pyridin-4-yl)-9H-purin-2-yl)-2-methylpiperazin-1-yl)phenol]
33 | 10 to 97.7 | CC1(C(=O)O)CCCN1c1nc(N2CCN(c3ccc(O)cc3)CC2)nc2c1ncn2-c1ccncc1 (centres unmarked) [Example 172, 1-(2-(4-(4-hydroxyphenyl)piperazin-1-yl)-9-(pyridin-4-yl)-9H-purin-6-yl)-2-methylpyrrolidine-2-carboxylic acid]
34 | 1000 to 9770 | NCCn1cnc2c(-n3ncc4ccccc43)nc(N3CCN(c4ccc(O)cc4)CC3)nc21 [Example 137, 4-(4-(9-(2-aminoethyl)-6-(1H-indazol-1-yl)-9H-purin-2-yl)piperazin-1-yl)phenol]
35 | 1000 to 9770 | CS(=O)(=O)NCCn1cnc2c(-n3ncc4ccccc43)nc(N3CCN(c4ccc(O)cc4)CC3)nc21 [Example 139, N-(2-(2-(4-(4-hydroxyphenyl)piperazin-1-yl)-6-(1H-indazol-1-yl)-9H-purin-9-yl)ethyl)methanesulfonamide]
36 | > 10000 | Nc1nc(N2CCC(O)(C#CCO)CC2)nc2c1ncn2-c1ccncc1 [Example 198, 1-(6-amino-9-(pyridin-4-yl)-9H-purin-2-yl)-4-(3-hydroxyprop-1-yn-1-yl)piperidin-4-ol]
37 | > 10000 | O=C(O)Cn1cnc2c(-n3ncc4ccccc43)nc(N3CCN(c4ccc5[nH]ncc5c4)CC3)nc21 [Example 140, 2-(2-(4-(1H-indazol-5-yl)piperazin-1-yl)-6-(1H-indazol-1-yl)-9H-purin-9-yl)acetic acid]
38 | 1000 to 9770 | Oc1ccc(C2(O)CCN(c3nc(N4CCCCC4)c4ncn(-c5ccncc5)c4n3)CC2)cc1 [Example 211, 1 4-(4-hydroxyphenyl)-1-(6-(piperidin-1-yl)-9-(pyridin-4-yl)-9H-purin-2-yl)piperidin-4-ol]
